In patent publication US10059975B2, “Methods for the isolation and identification of microorganisms” (bioMerieux, Inc., priority 2008, dated 2018):

How the values were obtained:
Format in all cases: cell-based
[1] = test system: Streptococcus pneumoniae, strain WM-43; test: Effect of detergent type on Gram reactivity, viability and intrinsic fluorophores; set-up: key to Viability of Pellet: NG (no growth); 4+(maximal growth); conditions: for Gram Stain of Pellet: Bacteria (cocci): detergent in 0.3M CAPS, pH 11.7, 1 min at 37° C.; for Viability of Pellet: 1:100 dilution of resuspended pellet plated on Sheep Blood Agar, scale NG to 4+; for effect on Gram reaction/reactivity of the S. pneumoniae isolate (in words): Table 4
Description: Lysis buffers were prepared containing detergents of differing structure and lytic activity in a base buffer formulation of 0.3M CAPS, pH 11.7. These lysis buffers were functionally assessed using positive blood culture broth containing a clinical microorganism strain known to be sensitive to detergents and alkaline pH conditions, Streptococcus pneumoniae, strain WM-43. Parameters evaluated were microbial intrinsic fluorescence levels (Excitation-Emission Matrix spectra), separation efficiency, appearance of isolated microbial pellet, and Gram stain characteristics and viability of microorganisms recovered from the pellet beneath the density cushion.
The procedure was performed as follows:
Mix 2 parts of positive broth with 1 part of test lysis buffer, incubate in a 37° C. water bath for 1 minute to lyse blood cells, then layer 0.5 mL of lysate over 0.2 mL of density cushion (14% w/v Iohexyl+1.93% w/v NaCl+10 mM Hepes, pH 7.4) dispensed into a 2-piece optical separation tube which was then hermetically sealed with a screw-cap. After centrifuging the tube in an Eppendorf 5417R microcentrifuge fitted with a A-8-11 swing out rotor for 2 minutes at 10,000 rpm, the tube was placed into a custom-built adapter which coupled the base of the tube directly to a 400 micron fiber optic probe connected to a spectrofluorimeter (Fluorolog® 3 from Horiba Jobin-Yvon, New Jersey), and a complete EEM scan was taken (Ex 260-850 nm; Em 260-1100 nm; every 5 nm). Following the scan, the supernatant was removed and the microbial pellet resuspended in 0.5 mL of Tryptic Soy Broth (TSB). Smears of the suspensions were prepared for Gram staining and twenty microliters of a 1:100 dilution were plated onto Sheep Blood Agar plates for viability estimation on a scale of NG (no growth) to 4+(maximal growth).

[2] = test system: S. pneumoniae strain, WM43; test: Further testing of lysis buffers in combination with density cushions; conditions: irrespective of the makeup of the density cushion
C. hominis = test: Viable counts following lysis buffer treatment
Description: (§1) A screening model was developed to enable testing the sensitivity of a larger number of microbial isolates to several detergents. Briefly, suspensions of test fastidious microorganisms were spiked into human blood-containing BacT/ALERT® SA culture media at 10^3-10^5 CFU/mL. Samples were treated with test Lysis Buffers for 1-5 minutes at 37 C, then if required, diluted 1:100 into TSB and plated for viable counts.

H. parainfluenzae = test: Viable counts following lysis buffer treatment
Description: as §1

S. pneumoniae WM48 = test: Viable counts following lysis buffer treatment
Description: as §1

A. actinomycetecomitans = test: Viable counts following lysis buffer treatment
Description: as §1

N. meningitidis = test: Viable counts following lysis buffer treatment
Description: as §1

H. influenzae = test: Viable counts following lysis buffer treatment
Description: as §1

S. pneumoniae WM43 = test: Viable counts following lysis buffer treatment
Description: as §1

[3] = test system: S. pneumoniae, S. pyogenes, S. agalactiae, S. mitis, P. mirabilis, K. pneumoniae and E. coli; test: Follow up experiment: viability after 5-minute contact time; conditions: data not shown
[4] = test system: fastidious microorganisms; test: Screening model, summary over the panel; conditions: summary of the colony counts of Table 6
Description: as §1

Compound: CCCCCCCCO[C@@H]1O[C@H](CO)[C@@H](O)[C@H](O)[C@H]1O [Detergent 1, n-octyl glucoside, reference compound]
- Gram Stain of Pellet: Bacteria (cocci) [1]: No organisms seen

Compound: C[C@H](CCC(=O)NCCC[N+](C)(C)CCCS(=O)(=O)[O-])[C@H]1CC[C@H]2[C@@H]3[C@H](O)C[C@@H]4C[C@H](O)CC[C@]4(C)[C@H]3C[C@H](O)[C@]12C [Detergent 2, CHAPS, reference compound]
- Gram Stain of Pellet: Bacteria (cocci) [1]: Rare Gram negative

Compound: CCCCCCCCCCCCOCCOCCOCCOCCOCCOCCOCCOCCOCCO [Detergent 6, nonaethylene glycol monododecyl ether, reference compound]
- Viability of Pellet [1]: 4+
- effect on Gram reaction/reactivity of the S. pneumoniae isolate (in words) [1]: relatively minor effect
- viability of the recovered S. pneumoniae cells (in words) [2]: not as high

Compound: Arlasolve 200 [Detergent 11]
- Gram Stain of Pellet: Bacteria (cocci) [1]: 3+ Gram positive

Compound: Brij ® 96V [Detergent 9]
- Gram Stain of Pellet: Bacteria (cocci) [1]: 3+ Gram positive

Compound: Brij ® 97 [Detergent 10]
- Viable Counts Following Lysis Buffer Treatment (C. hominis; 1 min at 37 C): 74
- Viable Counts Following Lysis Buffer Treatment (C. hominis; 5 min at 37 C): 28
- Viable Counts Following Lysis Buffer Treatment (H. parainfluenzae; 1 min at 37 C): 124
- Viable Counts Following Lysis Buffer Treatment (H. parainfluenzae; 5 min at 37 C): 19
- Viable Counts Following Lysis Buffer Treatment (S. pneumoniae WM48; 1 min at 37 C): 14
- Viable Counts Following Lysis Buffer Treatment (S. pneumoniae WM48; 5 min at 37 C): 11
- Viable Counts Following Lysis Buffer Treatment (A. actinomycetecomitans; 1 min at 37 C): 0
- Viable Counts Following Lysis Buffer Treatment (A. actinomycetecomitans; 5 min at 37 C): 0
- Viable Counts Following Lysis Buffer Treatment (N. meningitidis; 1 min at 37 C): 0
- Viable Counts Following Lysis Buffer Treatment (N. meningitidis; 5 min at 37 C): 0
- Viable Counts Following Lysis Buffer Treatment (H. influenzae; 1 min at 37 C): 0
- Viable Counts Following Lysis Buffer Treatment (H. influenzae; 5 min at 37 C): 0
- Viable Counts Following Lysis Buffer Treatment (S. pneumoniae WM43; 1 min at 37 C): 18
- Viable Counts Following Lysis Buffer Treatment (S. pneumoniae WM43; 5 min at 37 C): 7
- viability (in words) [3]: remained unaffected
- toxicity over the panel (in words) [4]: minimal toxicity
- Viability of Pellet [1]: 4+
- Gram Stain of Pellet: Bacteria (cocci) [1]: 3+ Gram positive

Compound: Brij ® 98 [Detergent 12]
- Gram Stain of Pellet: Bacteria (cocci) [1]: 3+ Gram positive

Compound: Genapol ® C-100 [Detergent 7]
- Viable Counts Following Lysis Buffer Treatment (C. hominis; 1 min at 37 C): 0
- Viable Counts Following Lysis Buffer Treatment (C. hominis; 5 min at 37 C): 0
- toxicity (in words) (C. hominis; compared with Brij® 97): slightly more toxic
- Viable Counts Following Lysis Buffer Treatment (H. parainfluenzae; 1 min at 37 C): 0
- Viable Counts Following Lysis Buffer Treatment (H. parainfluenzae; 5 min at 37 C): 0
- toxicity (in words) (H. parainfluenzae; compared with Brij® 97): slightly more toxic
- Viable Counts Following Lysis Buffer Treatment (S. pneumoniae WM48; 1 min at 37 C): 17
- Viable Counts Following Lysis Buffer Treatment (S. pneumoniae WM48; 5 min at 37 C): 12
- Viable Counts Following Lysis Buffer Treatment (A. actinomycetecomitans; 1 min at 37 C): 0
- Viable Counts Following Lysis Buffer Treatment (A. actinomycetecomitans; 5 min at 37 C): 0
- Viable Counts Following Lysis Buffer Treatment (N. meningitidis; 1 min at 37 C): 0
- Viable Counts Following Lysis Buffer Treatment (N. meningitidis; 5 min at 37 C): 0
- Viable Counts Following Lysis Buffer Treatment (H. influenzae; 1 min at 37 C): 0
- Viable Counts Following Lysis Buffer Treatment (H. influenzae; 5 min at 37 C): 0
- Viable Counts Following Lysis Buffer Treatment (S. pneumoniae WM43; 1 min at 37 C): 30
- Viable Counts Following Lysis Buffer Treatment (S. pneumoniae WM43; 5 min at 37 C): 19
- viability (in words) [3]: remained unaffected
- Gram Stain of Pellet: Bacteria (cocci) [1]: 3+ Gram positive

Compound: Genapol ® X-080 [Detergent 5]
- effect on Gram reaction/reactivity of the S. pneumoniae isolate (in words) [1]: relatively minor effect

Compound: Genapol ® X-100 [Detergent 8]
- Viability of Pellet [1]: 4+
- Gram Stain of Pellet: Bacteria (cocci) [1]: 3+ Gram positive

Compound: Triton ® X100-R [Detergent 3]
- Gram Stain of Pellet: Bacteria (cocci) [1]: 2+ Gram negative
- viability of the recovered S. pneumoniae cells (in words) [2]: not as high
